The subject of the experiment is E. coli harboring plasmid encoding mCherry-FolA fusion under the control of pBAD promoter.

Each structure is given as a SMILES string.

Consider `Cc1cc(NS(=O)(=O)c2ccc(N)cc2)no1` [sulfamethoxazole], for which the “Inhibition of growth by sulfamethoxazole” value is listed as “did not inhibit growth” and the “Sulfamethoxazole concentration at which sensitivity to trimethoprim is restored” value was over 2 µg/mL.
As to `COc1cc(Cc2cnc(N)nc2N)cc(OC)c1OC` [trimethoprim], the “Resistance of cells to trimethoprim” value is on record as “highly resistant” and the “Synergy of trimethoprim with sulfamethoxazole” value is reported as “strong synergy”.
